Data as given in ChEMBL document CHEMBL5579829, “Discovery of a potent CDKs/FLT3 PROTAC with enhanced differentiation and proliferation inhibition for AML” (Eur J Med Chem, 2024).
pIC50: −log10 of the molar value.

How the values were obtained:
[1] = molecular target: T1, Protein cereblon/Cyclin-dependent kinase 2 (Homo sapiens, UniProt P24941+Q96SW2); experiment: Protac activity at CRBN/CDK2 in human HL-60 cells assessed as induction of CDK2 degradation by Western blot analysis; assay type: cell-based
HL-60 [2] = experiment: Antiproliferative activity against human HL-60 cells measured after 1 to 3 days by CCK-8 assay; assay type: functional, cell-based
[3] = molecular target: T1, Protein cereblon/Cyclin-dependent kinase 2; experiment: Protac activity at CRBN/CDK2 in human HL-60 cells assessed as induction of CDK2 degradation by Western blot analysis relative to control; assay type: cell-based
[4] = molecular target: T1, Protein cereblon/Cyclin-dependent kinase 2; experiment: Protac activity at CRBN/CDK2 in human OVCAR-8 cells assessed as induction of CDK2 degradation measured after 6 hrs by Western blot analysis; assay type: cell-based
[5] = molecular target: Protein cereblon/Cyclin-dependent kinase 9 (Homo sapiens, UniProt P50750+Q96SW2); experiment: Protac activity at CRBN/CDK9 in human OVCAR-8 cells assessed as induction of CDK9 degradation measured after 6 hrs by Western blot analysis; assay type: cell-based
Chain of Protein cereblon/Cyclin-dependent kinase 9 (P50750 whole entry): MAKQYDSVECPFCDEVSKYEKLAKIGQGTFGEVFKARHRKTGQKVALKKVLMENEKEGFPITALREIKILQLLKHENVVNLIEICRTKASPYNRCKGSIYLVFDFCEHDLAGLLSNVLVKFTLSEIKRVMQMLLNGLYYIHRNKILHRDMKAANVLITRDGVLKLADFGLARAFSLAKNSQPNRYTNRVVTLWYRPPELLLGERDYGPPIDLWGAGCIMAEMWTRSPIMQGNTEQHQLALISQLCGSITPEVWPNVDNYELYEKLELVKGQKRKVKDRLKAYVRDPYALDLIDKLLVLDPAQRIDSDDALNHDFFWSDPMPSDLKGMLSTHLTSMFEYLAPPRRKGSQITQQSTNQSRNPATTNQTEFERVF
Chain of Protein cereblon/Cyclin-dependent kinase 9 (Q96SW2 whole entry): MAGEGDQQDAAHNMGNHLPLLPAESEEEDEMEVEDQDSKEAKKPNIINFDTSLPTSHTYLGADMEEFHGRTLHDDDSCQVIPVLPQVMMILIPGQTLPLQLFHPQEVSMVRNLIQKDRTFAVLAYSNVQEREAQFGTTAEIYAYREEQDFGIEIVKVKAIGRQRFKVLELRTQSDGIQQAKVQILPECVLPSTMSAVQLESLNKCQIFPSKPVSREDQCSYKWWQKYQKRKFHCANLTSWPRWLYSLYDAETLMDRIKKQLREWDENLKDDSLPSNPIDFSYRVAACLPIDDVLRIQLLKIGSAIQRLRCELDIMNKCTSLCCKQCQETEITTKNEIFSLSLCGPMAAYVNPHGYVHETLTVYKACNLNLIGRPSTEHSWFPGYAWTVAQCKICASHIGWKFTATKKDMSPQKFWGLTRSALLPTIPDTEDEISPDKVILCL

[6] = molecular target: von Hippel-Lindau disease tumor suppressor/Receptor-type tyrosine-protein kinase FLT3 (Homo sapiens, UniProt P36888+P40337); experiment: Protac activity at VHL/FLT3-ITD (unknown origin) assessed as induction of FLT3 degradation
Chain of von Hippel-Lindau disease tumor suppressor/Receptor-type tyrosine-protein kinase FLT3 (P36888 whole entry, looked up, change not shown): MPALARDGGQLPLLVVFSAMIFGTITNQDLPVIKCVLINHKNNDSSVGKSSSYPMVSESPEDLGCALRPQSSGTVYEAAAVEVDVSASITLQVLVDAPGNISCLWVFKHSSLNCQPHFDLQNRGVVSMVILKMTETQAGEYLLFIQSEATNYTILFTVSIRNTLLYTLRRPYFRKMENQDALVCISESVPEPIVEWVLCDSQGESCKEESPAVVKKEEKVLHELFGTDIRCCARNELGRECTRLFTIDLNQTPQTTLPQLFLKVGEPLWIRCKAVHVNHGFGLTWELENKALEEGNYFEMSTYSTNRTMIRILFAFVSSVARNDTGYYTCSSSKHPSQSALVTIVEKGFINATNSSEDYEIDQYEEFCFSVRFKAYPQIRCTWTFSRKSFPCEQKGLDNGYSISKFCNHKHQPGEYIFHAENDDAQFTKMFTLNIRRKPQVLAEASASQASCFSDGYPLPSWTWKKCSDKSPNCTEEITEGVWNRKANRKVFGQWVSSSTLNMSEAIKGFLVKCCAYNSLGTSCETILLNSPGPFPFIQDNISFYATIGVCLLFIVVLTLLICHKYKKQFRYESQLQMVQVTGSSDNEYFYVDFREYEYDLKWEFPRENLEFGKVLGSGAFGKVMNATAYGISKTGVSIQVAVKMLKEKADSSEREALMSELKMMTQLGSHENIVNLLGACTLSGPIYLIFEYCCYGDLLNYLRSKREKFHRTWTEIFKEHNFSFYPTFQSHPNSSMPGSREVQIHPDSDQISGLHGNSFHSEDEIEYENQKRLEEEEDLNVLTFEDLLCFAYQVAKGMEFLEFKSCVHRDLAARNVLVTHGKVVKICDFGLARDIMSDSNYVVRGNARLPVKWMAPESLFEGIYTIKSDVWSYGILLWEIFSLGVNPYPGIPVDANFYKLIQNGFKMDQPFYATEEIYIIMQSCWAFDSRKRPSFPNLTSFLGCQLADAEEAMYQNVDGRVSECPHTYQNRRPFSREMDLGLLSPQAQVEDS
Chain of von Hippel-Lindau disease tumor suppressor/Receptor-type tyrosine-protein kinase FLT3 (P40337 whole entry, looked up, change not shown): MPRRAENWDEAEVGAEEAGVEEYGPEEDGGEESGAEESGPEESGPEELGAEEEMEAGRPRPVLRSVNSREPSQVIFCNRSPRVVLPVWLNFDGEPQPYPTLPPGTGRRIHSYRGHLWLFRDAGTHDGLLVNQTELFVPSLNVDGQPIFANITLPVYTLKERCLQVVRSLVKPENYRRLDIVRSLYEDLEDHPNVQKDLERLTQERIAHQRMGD

HL-60 [7] = experiment: Induction of pro-differentiation of human HL-60 cells assessed as CD11b expression at 500 nM measured after 3 days by immunostaining-based flow cytometry (reference value: 8.32 to 10.55%); assay type: functional; settings: time 3 day
[8] = molecular target: T1, Protein cereblon/Cyclin-dependent kinase 2; experiment: Protac activity at CRBN/CDK2 in human Kasumi 1 cells assessed as induction of CDK2 degradation measured after 48 hrs by Western blot analysis; assay type: cell-based
HL-60 [9] = experiment: Induction of pro-differentiation of human HL-60 cells assessed as CD11b expression at 500 nM measured after 5 days by immunostaining-based flow cytometry (reference value: 10.08 to 10.33%); assay type: functional; settings: time 5 day
[10] = molecular target: Protein cereblon/Cyclin-dependent kinase 6 (Homo sapiens, UniProt Q00534+Q96SW2); experiment: Protac activity at CRBN/CDK6 in human MDA-MB-231 cells assessed as induction of CDK6 degradation measured after 18 hrs by Western blot analysis; assay type: cell-based
Chain of Protein cereblon/Cyclin-dependent kinase 6 (Q00534 whole entry): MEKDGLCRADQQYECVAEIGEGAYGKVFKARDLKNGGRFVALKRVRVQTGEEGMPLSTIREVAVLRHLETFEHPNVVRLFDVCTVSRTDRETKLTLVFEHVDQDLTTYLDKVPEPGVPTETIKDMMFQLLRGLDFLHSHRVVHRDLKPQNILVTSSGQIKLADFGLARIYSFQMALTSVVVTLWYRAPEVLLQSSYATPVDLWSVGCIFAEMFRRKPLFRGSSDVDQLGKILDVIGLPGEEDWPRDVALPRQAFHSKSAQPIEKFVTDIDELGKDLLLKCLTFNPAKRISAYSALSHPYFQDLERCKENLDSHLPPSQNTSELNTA
Chain of Protein cereblon/Cyclin-dependent kinase 6 (Q96SW2 whole entry): as the sequence (Q96SW2 whole entry) above

[11] = molecular target: Protein cereblon/Cyclin-dependent kinase 4 (Homo sapiens, UniProt P11802+Q96SW2); experiment: Protac activity at CRBN/CDK4 in human MDA-MB-231 cells assessed as induction of CDK4 degradation measured after 18 hrs by Western blot analysis; assay type: cell-based
Chain of Protein cereblon/Cyclin-dependent kinase 4 (P11802 whole entry): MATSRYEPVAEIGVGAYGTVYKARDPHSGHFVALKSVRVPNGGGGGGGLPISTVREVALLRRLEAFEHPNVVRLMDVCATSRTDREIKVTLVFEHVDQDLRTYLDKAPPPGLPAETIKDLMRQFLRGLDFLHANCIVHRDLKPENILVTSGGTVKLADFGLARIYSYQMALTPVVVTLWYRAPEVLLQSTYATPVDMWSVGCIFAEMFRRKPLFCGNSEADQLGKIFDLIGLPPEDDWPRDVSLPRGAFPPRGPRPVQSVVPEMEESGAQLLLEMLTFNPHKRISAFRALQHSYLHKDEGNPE
Chain of Protein cereblon/Cyclin-dependent kinase 4 (Q96SW2 whole entry): as the sequence (Q96SW2 whole entry) above

Structure (SMILES): O=C1CCC(N2C(=O)c3ccc(N4CCC(N5CCC(NC(=O)c6n[nH]cc6NC(=O)c6c(Cl)cccc6Cl)CC5)CC4)cc3C2=O)C(=O)N1 (stereo not drawn)
- DC50 [1]: 2.8 nM
- pIC50 (HL-60 [2]): 7.61
- Emax [3]: 79.2%

Structure (SMILES): O=C(CCC(=O)N1CCN(Cc2ccc(NC(=O)c3n[nH]cc3Nc3ncnc4[nH]ccc34)cc2)CC1)NCCNc1cccc2c1C(=O)N(C1CCC(=O)NC1=O)C2=O (stereo not drawn)
- DC50 [4]: 62 nM
- DC50 [5]: 33 nM

Structure (SMILES): O=C1CCC(N2C(=O)c3ccc(N4CCC(CN5CCC(NC(=O)c6n[nH]cc6NC(=O)c6c(Cl)cccc6Cl)CC5)C4)cc3C2=O)C(=O)N1 (stereo not drawn)
- DC50 [1]: 4.71 nM
- pIC50 (HL-60 [2]): 7.39
- Emax [3]: 67.3%

Structure (SMILES): CN1CCN(Cc2ccc(NC(=O)c3n[nH]cc3Nc3ncnc4[nH]ccc34)cc2)CC1
- pIC50 (HL-60 [2]): 7.05

Structure (SMILES): O=C1CCC(N2C(=O)c3ccc(N4CCC(CN5CCC(CN6CCC(NC(=O)c7n[nH]cc7NC(=O)c7c(Cl)cccc7Cl)CC6)CC5)C4)cc3C2=O)C(=O)N1 (stereo not drawn)
- DC50 [1]: > 100 nM

Structure (SMILES): O=C1CCC(N2C(=O)c3ccc(N4CCC(C(=O)N5CCC(N6CCC(NC(=O)c7n[nH]cc7NC(=O)c7c(Cl)cccc7Cl)CC6)CC5)CC4)cc3C2=O)C(=O)N1 (stereo not drawn)
- DC50 [1]: > 100 nM

Structure (SMILES): O=C1CCC(N2C(=O)c3ccc(N4CCC(N5CCC(NC(=O)c6n[nH]cc6NC(=O)c6c(Cl)cccc6Cl)CC5)C4)cc3C2=O)C(=O)N1 (stereo not drawn)
- DC50 [1]: 7.13 nM
- pIC50 (HL-60 [2]): 7.85
- Emax [3]: 59.1%

Structure (SMILES): O=C1CCC(N2C(=O)c3ccc(N4CC(C(=O)N5CCC(N6CCC(NC(=O)c7n[nH]cc7NC(=O)c7c(Cl)cccc7Cl)CC6)CC5)C4)cc3C2=O)C(=O)N1 (stereo not drawn)
- DC50 [1]: > 100 nM

Structure (SMILES): CCc1nc(C(N)=O)c(Nc2ccc(N3CCN(CCC4CCN(CC(=O)N[C@H](C(=O)N5C[C@H](O)C[C@H]5C(=O)N[C@@H](C)c5ccc(-c6scnc6C)cc5)C(C)(C)C)CC4)CC3)c(OC)c2)nc1NC1CCOCC1
- DC50 [6]: 7.62 nM

Structure (SMILES): O=C1CCC(N2C(=O)c3ccc(N4CC(CN5CCC(NC(=O)c6n[nH]cc6NC(=O)c6c(Cl)cccc6Cl)CC5)C4)cc3C2=O)C(=O)N1 (stereo not drawn)
- DC50 [1]: 13 nM
- pIC50 (HL-60 [2]): 7.69
- Emax [3]: 63.2%

Structure (SMILES): Cc1ccsc1C(=O)n1nc(Nc2ccc(S(=O)(=O)NCCOCc3cn(CCOCCOCCNc4cccc5c4C(=O)N(C4CCC(=O)NC4=O)C5=O)nn3)cc2)nc1N (stereo not drawn)
- Activity (HL-60 [7]): 26.84%
- DC50 [8]: 61 nM
- Activity (HL-60 [9]): 34.38%
- pIC50 (HL-60 [2]): < 6.00

Structure (SMILES): O=C1CCC(N2C(=O)c3ccc(N4CC(N5CCC(NC(=O)c6n[nH]cc6NC(=O)c6c(Cl)cccc6Cl)CC5)C4)cc3C2=O)C(=O)N1 (stereo not drawn)
- DC50 [1]: 26.1 nM
- pIC50 (HL-60 [2]): 7.75
- Emax [3]: 72.8%

Structure (SMILES): CC(=O)c1c(C)c2cnc(Nc3ccc(N4CCN(Cc5cn(CCCCCC(=O)Nc6cccc7c6C(=O)N(C6CCC(=O)NC6=O)C7=O)nn5)CC4)cn3)nc2n(C2CCCC2)c1=O (stereo not drawn)
- DC50 [10]: 34.1 nM
- DC50 [11]: 12.9 nM

Structure (SMILES): O=C1CCC(N2C(=O)c3ccc(N4CC(CN5CCC(CN6CCC(NC(=O)c7n[nH]cc7NC(=O)c7c(Cl)cccc7Cl)CC6)CC5)C4)cc3C2=O)C(=O)N1 (stereo not drawn)
- DC50 [1]: > 100 nM
- Emax [3]: 9.07%

Structure (SMILES): O=C1CCC(N2C(=O)c3ccc(N4CCC(CN5CCC(CN6CCC(NC(=O)c7n[nH]cc7NC(=O)c7c(Cl)cccc7Cl)CC6)CC5)CC4)cc3C2=O)C(=O)N1 (stereo not drawn)
- DC50 [1]: > 100 nM
- Emax [3]: 31.8%

Structure (SMILES): O=C1CCC(N2C(=O)c3ccc(N4CC(CN5CCC(N6CCC(NC(=O)c7n[nH]cc7NC(=O)c7c(Cl)cccc7Cl)CC6)CC5)C4)cc3C2=O)C(=O)N1 (stereo not drawn)
- DC50 [1]: > 100 nM
- Emax [3]: 43.3%

Structure (SMILES): O=C1CCC(N2C(=O)c3ccc(N4CCC(CN5CCC(N6CCC(NC(=O)c7n[nH]cc7NC(=O)c7c(Cl)cccc7Cl)CC6)CC5)C4)cc3C2=O)C(=O)N1 (stereo not drawn)
- DC50 [1]: > 100 nM
- Emax [3]: 28.9%

Structure (SMILES): O=C1CCC(N2C(=O)c3ccc(N4CCC(CN5CCC(CCN6CCC(NC(=O)c7n[nH]cc7NC(=O)c7c(Cl)cccc7Cl)CC6)CC5)CC4)cc3C2=O)C(=O)N1 (stereo not drawn)
- DC50 [1]: > 100 nM
- Emax [3]: 43.5%

Structure (SMILES): O=C1CCC(N2C(=O)c3ccc(N4CCC(C(=O)N5CCC(NC(=O)c6n[nH]cc6NC(=O)c6c(Cl)cccc6Cl)CC5)CC4)cc3C2=O)C(=O)N1 (stereo not drawn)
- DC50 [1]: 93.3 nM
- Emax [3]: 59.3%

Structure (SMILES): O=C1CCC(N2C(=O)c3ccc(N4CCC(CN5CCC(N6CCC(NC(=O)c7n[nH]cc7NC(=O)c7c(Cl)cccc7Cl)CC6)CC5)CC4)cc3C2=O)C(=O)N1 (stereo not drawn)
- DC50 [1]: > 100 nM

Structure (SMILES): O=C1CCC(N2C(=O)c3ccc(N4CC(C(=O)N5CCC(NC(=O)c6n[nH]cc6NC(=O)c6c(Cl)cccc6Cl)CC5)C4)cc3C2=O)C(=O)N1 (stereo not drawn)
- DC50 [1]: > 100 nM
- Emax [3]: 34.2%

Structure (SMILES): O=C1CCC(N2C(=O)c3ccc(N4CCC(CN5CCN(Cc6ccc(NC(=O)c7n[nH]cc7Nc7ncnc8[nH]ccc78)cc6)CC5)C4)cc3C2=O)C(=O)N1 (stereo not drawn)
- DC50 [1]: 1.63 nM
- pIC50 (HL-60 [2]): 7.93
- Emax [3]: 76.1%

Structure (SMILES): O=C1CCC(N2C(=O)c3ccc(N4CCC(CN5CCC(CCN6CCC(NC(=O)c7n[nH]cc7NC(=O)c7c(Cl)cccc7Cl)CC6)CC5)C4)cc3C2=O)C(=O)N1 (stereo not drawn)
- DC50 [1]: > 100 nM
- Emax [3]: 38.9%

Structure (SMILES): O=C1CCC(N2C(=O)c3ccc(N4CCC(C(=O)N5CCN(Cc6ccc(NC(=O)c7n[nH]cc7Nc7ncnc8[nH]ccc78)cc6)CC5)CC4)cc3C2=O)C(=O)N1 (stereo not drawn)
- DC50 [1]: > 100 nM
- Emax [3]: 47.9%

Structure (SMILES): O=C1CCC(N2C(=O)c3ccc(N4CCC(CCN5CCC(NC(=O)c6n[nH]cc6NC(=O)c6c(Cl)cccc6Cl)CC5)CC4)cc3C2=O)C(=O)N1 (stereo not drawn)
- DC50 [1]: 26.5 nM
- pIC50 (HL-60 [2]): 7.62
- Emax [3]: 54.9%

Structure (SMILES): O=C1CCC(N2C(=O)c3ccc(N4CCC(CN5CCC(NC(=O)c6n[nH]cc6NC(=O)c6c(Cl)cccc6Cl)CC5)CC4)cc3C2=O)C(=O)N1 (stereo not drawn)
- DC50 [1]: 1.17 nM
- pIC50 (HL-60 [2]): 7.35
- Emax [3]: 75.8%

Structure (SMILES): O=C1CCC(N2C(=O)c3ccc(N4CC(CN5CCN(Cc6ccc(NC(=O)c7n[nH]cc7Nc7ncnc8[nH]ccc78)cc6)CC5)C4)cc3C2=O)C(=O)N1 (stereo not drawn)
- DC50 [1]: 1.23 nM
- pIC50 (HL-60 [2]): 7.87
- Emax [3]: 58.8%

Structure (SMILES): O=C1CCC(N2C(=O)c3ccc(N4CC(CN5CCC(CCN6CCC(NC(=O)c7n[nH]cc7NC(=O)c7c(Cl)cccc7Cl)CC6)CC5)C4)cc3C2=O)C(=O)N1 (stereo not drawn)
- DC50 [1]: 11.2 nM
- pIC50 (HL-60 [2]): 7.94
- Emax [3]: 65.8%

Structure (SMILES): O=C(NC1CCNCC1)c1n[nH]cc1NC(=O)c1c(Cl)cccc1Cl [AT-7519]
- pIC50 (HL-60 [2]): 6.87
